The target of one data set is T1, PPAR-γ (Homo sapiens, UniProt P37231).
T1 sequence (P37231 1-505): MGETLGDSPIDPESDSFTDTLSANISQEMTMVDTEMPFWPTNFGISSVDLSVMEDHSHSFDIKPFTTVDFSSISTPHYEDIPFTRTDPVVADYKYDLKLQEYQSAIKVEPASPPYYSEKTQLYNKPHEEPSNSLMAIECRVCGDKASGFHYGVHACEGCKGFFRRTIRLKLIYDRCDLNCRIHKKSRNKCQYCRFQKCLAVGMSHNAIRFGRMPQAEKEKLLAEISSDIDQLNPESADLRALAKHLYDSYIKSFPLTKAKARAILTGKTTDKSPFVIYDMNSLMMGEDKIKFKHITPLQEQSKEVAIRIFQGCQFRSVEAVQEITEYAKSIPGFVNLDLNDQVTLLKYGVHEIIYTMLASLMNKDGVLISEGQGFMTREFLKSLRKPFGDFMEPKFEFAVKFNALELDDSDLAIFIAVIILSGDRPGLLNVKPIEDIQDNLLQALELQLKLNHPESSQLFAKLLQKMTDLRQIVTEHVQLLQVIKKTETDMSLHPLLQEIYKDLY
Briefly: PPAR-γ ligand receptor binding. Particulars: initial results.

Data set [1] has as its target T2, LTD4 receptor (Cavia porcellus, UniProt Q2NNR5).
T2 sequence (Q2NNR5 1-340): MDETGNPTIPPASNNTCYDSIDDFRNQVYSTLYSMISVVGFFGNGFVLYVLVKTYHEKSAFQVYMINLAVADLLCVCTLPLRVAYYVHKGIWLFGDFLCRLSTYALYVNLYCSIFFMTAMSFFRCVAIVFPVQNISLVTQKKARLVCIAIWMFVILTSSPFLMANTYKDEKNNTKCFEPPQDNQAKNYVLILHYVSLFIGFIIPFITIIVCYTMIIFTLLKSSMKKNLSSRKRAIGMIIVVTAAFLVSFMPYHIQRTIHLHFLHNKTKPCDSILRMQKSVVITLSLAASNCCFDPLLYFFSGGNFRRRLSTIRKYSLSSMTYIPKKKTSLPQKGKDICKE
Briefly: LTD4 binding, guinea pig receptor. The settings on record: read-out: Kd, antagonist of the guinea pig LTD4 receptor.

The next data set concerns db/db mice. The experiment in a line: Oral (in-feed) efficacy in db/db mice, genetic model of type II diabetes. The class given is in vivo, mouse. The protocol:
An in-feed study in this genetic model of type II diabetes was performed. […] The compound of formula VI and Troglitazone® were studied in a genetic model of diabetes (db/db mice). A total of 70 female db/db mice (C57Bl/Ks db+/+; Jackson Labs, Maine), 3 months of age, received either meal chow only (rodent chow # 5001), 50 or 150 mg/kg/day of the compound of formula VI and 50 or 150 mg/kg/day of Troglitazone® mixed with the food. Six animals were sacrificed on Day 0 to obtain baseline values, the remaining 64 animals were randomly distributed into 5 groups. On days 0, 8, 12 and 16 whole blood samples were taken via the tail vein and blood glucose was determined (in duplicate) using the One Touch® gluco-meter. On Day 16, animals were anesthetized using pentobarbital, blood was drawn into EDTA tubes and the following organs were removed: heart, liver, brain, white and brown adipose tissue and the tibia. Plasma was prepared and kept frozen until samples were analyzed for glucose, free fatty acids, insulin and triglycerides. [table] Plasma was analyzed for glucose, triglycerides, free fatty acids and insulin. The latter two methods were slightly modified to use smaller amounts of plasma. Glucose Analysis. Plasma glucose was measured with a Sigma Chemicals Diagnostic kit (#315-500). Triglyceride Analysis. Plasma triglycerides was measured with a Sigma Chemicals Diagnostic kit (#339-500P). Insulin Analysis. Plasma insulin was measured using a radioimmunoassay (RIA) kit from Linco Research Inc. (#RI-13K). This kit was modified slightly using 10 μl of plasma. This kit utilizes an antibody made specifically against rat insulin. The cross-reactivity of this antibody with mouse insulin is 100 percent. Free Fatty Acid Analysis. Plasma free fatty acids were measured using a kit obtained from Wako Chemicals Inc. (NEFA-C; #994-75409). This kit utilizes an in vitro enzymatic colorimetric method for the quantitation of non-esterified fatty acids in serum or plasma. This method relies upon the acylation of coenzyme A by the fatty acids in the presence of added acyl-CoA synthetase. This method was modified slightly to utilize 5 μl of plasma and was performed in a 96-well format (M. Johnson & J. Peters, J. Animal Science 71:753-756, 1993).

In a further data set the test system is human preadipocytes. The experiment in a line: Adipocyte differentiation of primary human pre-adipocyte cultures (oil red-O). Particulars: for EC50: Homo sapiens, Adipocyte, human adipocyte differentiation in presence of insulin and dexamethasone. Format: cell-based. The protocol:
Evaluation of the capacity to induce differentiation of primary human pre-adipocyte cultures to adipocytes.
The capacity of Compound VI to induce adipocyte differentiation of primary human pre-adipocyte cultures was evaluated and compared directly to Troglitazone®.
Human subcutaneous preadipocytes were isolated from adipose tissue obtained by liposuction surgery. Preadipocytes were inoculated at high density in preadipocyte medium (DME/F-10, 1:1, (v/v) containing 10% fetal calf serum). Cells were kept in preadipocytic medium overnight for attachment. […] The basal medium, which was used as the negative control, contained DME/F-10, biotin (33 μM), pantothenate (17 μM), insulin (100 nM), and dexamethasone (1 μM). The culture was maintained for 14 days with the compound treatment during the first five days. At the end of the culture, cells were fixed in 5% formalin and stained with oil red-O dye. The dye was extracted by isopropanol and quantitated by measuring the optical density at 500 nm.

For data set [2], the target named is T3, LTD4 receptor (Homo sapiens, UniProt Q9Y271).
T3 construct: endogenous in cells
T3 sequence (Q9Y271 1-337): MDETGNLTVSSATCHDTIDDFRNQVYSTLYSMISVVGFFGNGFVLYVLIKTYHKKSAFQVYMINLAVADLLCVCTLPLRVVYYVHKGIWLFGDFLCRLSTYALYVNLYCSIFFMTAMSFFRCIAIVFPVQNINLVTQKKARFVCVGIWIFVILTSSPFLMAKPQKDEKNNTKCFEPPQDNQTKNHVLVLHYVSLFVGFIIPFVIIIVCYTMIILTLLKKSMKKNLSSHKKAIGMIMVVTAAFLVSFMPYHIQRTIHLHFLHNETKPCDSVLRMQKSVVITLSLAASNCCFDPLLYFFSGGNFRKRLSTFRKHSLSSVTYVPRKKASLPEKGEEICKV
Briefly: LTD4 receptor binding in THP-1 cells. Particulars: for Kb: THP-1 cells, read-out: LTD4 Binding (Kb for binding of compound to the LTD4 receptor).

This is an account of results in patent US6376512B1, “Therapeutic uses of quinoline derivatives” (Aventis Pharma Deutschland GmbH, priority 1997, dated 2002).

“Also recorded” adds a separate entry of the source. Where two headings read alike, the source gives them in different places.

With `c1cc(COc2cccc(-c3nnn[nH]3)c2)cc(OCc2ccc3ccccc3n2)c1` [Example 10, 5-[3-(3-(2-quinolinylmethyloxy)benzyloxy)phenyl]tetrazole], the melting point was 169 to 172 °C.
`COC(=O)c1cccc(COc2cccc(OCc3ccc4ccccc4n3)c2)c1` [Example 19, methyl 3-(3-(2-quinolinylmethyloxy)phenoxymethyl)benzoate] gave a melting point of 93 to 94 °C.
The same measure, in the same setting: in the case of `COc1cc(C(=O)O)ccc1OCc1cccc(OCc2ccc3ccccc3n2)c1` [Example 15, 3-methoxy-4-(3-(2-quinolinylmethyloxy)benzyloxy)benzoic acid] it was 188 to 190 °C.
`c1ccc2nc(COc3ccc(COc4ccc(-c5nnn[nH]5)cc4)cc3)ccc2c1` [Example 11, 5-[4-(4-(2-quinolinylmethyloxy)benzyloxy)phenyl]tetrazole] gave a melting point of 210 to 213 °C.
Take `c1ccc(Cc2nn[nH]n2)c(COc2ccc(OCc3ccc4ccccc4n3)cc2)c1` [Compound VI, 5-[2-(4-(2-quinolinylmethoxy)phenoxymethyl)benzyl]tetrazole]: the “potency as PPAR-γ ligand receptor binder relative to Troglitazone” value at PPAR-γ is reported as “more potent PPAR-γ ligand receptor binder than Troglitazone®”. Besides, the equilibrium dissociation constant (Kd) on LTD4 receptor [1] turned out to be 3 nM. Also, the lowering plasma glucose entry in the data set on db/db mice (db/db mice, 50 or 150 mg/kg/day mixed with the food, Day 16, FIG. 3A) is “effective”. Further, the “lowering plasma free fatty acids” value with db/db mice (db/db mice, 50 or 150 mg/kg/day mixed with the food, Day 16, FIG. 3B) is listed as “effective”. In addition, in the data set with db/db mice (db/db mice, 50 or 150 mg/kg/day mixed with the food, Day 16, FIG. 3C), the lowering plasma triglycerides entry is on record as “effective”. The lowering plasma insulin result with db/db mice (db/db mice, 50 or 150 mg/kg/day mixed with the food, Day 16, FIG. 3D) was “effective”. In addition, the “efficacy relative to Troglitazone” value in the data set on db/db mice (db/db mice, same doses, listed as compound of formula VI) was “significantly better efficacy; also recorded: more efficacious than Troglitazone®”. Moreover, in the data set on db/db mice (db/db mouse, in-feed administration, FIG. 4), the “potency relative to Troglitazone in lowering glucose” value is listed as “at least three times the potency of Troglitazone®”. For the same molecule, in the data set on human preadipocytes (in serum), the EC50 fell in the range of 1000 to 3000 nM. In addition, the half-maximal effective concentration (EC50) with human preadipocytes (serum free medium) lay within 100 to 300 nM. In the data set on human preadipocytes (human preadipocytes), the “activity in the differentiation assay” value is recorded as “active” and the “potency in the differentiation assay relative to Troglitazone” value is “better potency than Troglitazone®”. Also, on LTD4 receptor [2], the “binding to the LTD4 receptor (in words)” value is given as “binds tightly” and the Kb came to 38 nM. Also, the Kb on LTD4 receptor [2] (in serum) turned out to be 88 nM.
`c1cc(COc2ccc(OCc3ccc4ccccc4n3)cc2)cc(OCc2nnn[nH]2)c1` [Example 32, 5-(3-(4-(2-quinolinylmethyloxy)phenoxymethyl)phenoxymethyl)tetrazole] had a melting point of 131 to 132 °C.
Take `Cc1c(C)c2c(c(C)c1O)CCC(C)(COc1ccc(CC3SC(=O)NC3=O)cc1)O2` (stereo not shown) [Troglitazone ®, Troglitazone, reference compound]: the 50% effective concentration (EC50) with human preadipocytes (serum free medium) is more than 3000 nM. The Kb on LTD4 receptor [2] is more than 10000 nM.
Turning to `N#Cc1ccc(COc2cccc(OCc3ccc4ccccc4n3)c2)cc1` [Example 26, 4-(3-(2quinolinylmethyloxy)phenoxy-methyl)benzonitrile], the melting point was 112.5 °C.
`c1cc(OCc2ccc(-c3nnn[nH]3)cc2)cc(OCc2ccc3ccccc3n2)c1` [Example 27, 5-(4-(3-(2quinolinylmethyloxy)phenoxy-methyl)phenyl)tetrazole]: the melting point was 91 °C (dec.).
Still for that read-out and setting: in the case of `COC(=O)c1ccc(OCc2cccc(OCc3ccc4ccccc4n3)c2)c(OC)c1` [Example 14, methyl 3-methoxy-4-(3-(2quinolinylmethyloxy)benzyloxy)-benzoate] it was 100 to 101 °C; in that of `N#Cc1cccc(OCc2cccc(OCc3ccc4ccccc4n3)c2)c1` [Example 7, 3-[3-(2-quinolinylmethyloxy)benzyloxy]benzonitrile], 86 to 87 °C; in that of `c1ccc2nc(COc3ccc(COc4ccc(Cc5nnn[nH]5)cc4)cc3)ccc2c1` [Example 12, 5-[4(4-(2-quinolinylmethyloxy)benzyloxy)benzyl]tetrazole], 179 to 181 °C.
Same read-out and setting: in the case of `O=C(O)c1cccc(COc2cccc(OCc3ccc4ccccc4n3)c2)c1` [Example 20, 3-(3-(2-quinolinylmethyloxy)phenoxymethyl)benzoic acid] it was 149 to 151 °C.

For orientation: melting point means the temperature, or range, at which the solid turns liquid. One may read the Kd as the concentration at which binding is half-saturated. Usually EC50 stands for the concentration that produces a half-maximal response.
